Test results as given in US20220265635A1, “TREATMENT OF NEUROLOGICAL DISEASE” (Aclipse One Inc., priority 2018, published 2022).

Tests used:
TDP-43^Q331K mouse model [1] = experiment: Example 4 electrophysiology: repetitive stimulation; type: in vivo; conditions: TDP-43^Q331K mice
Method: (§1) Following genotyping, transgenic females were block randomized into three different dosing groups: vehicle once daily, 2.5 mg/kg (6aS)-6-methyl-5,6,6a,7-tetrahydro-4H-dibenzo[de,g]quinoline-10,11-diol twice daily and 5 mg/kg (6aS)-6-methyl-5,6,6a,7-tetrahydro-4H-dibenzo[de,g]quinoline-10,11-diol once daily. The doses were selected based on results of previous internal studies. Animals were weighed daily before dosing and dosed subcutaneously at 10 ml/kg with a solution of 0.5 mg/ml (6aS)-6-methyl-5,6,6a,7-tetrahydro-4H-dibenzo[de,g]quinoline-10,11-diol for the 5 mg/kg dose and 0.25 mg/ml for the 2.5 mg/kg dose. Where animals were dosed twice a day, the doses were at least 6 hours apart and the dosing solution was freshly made for the second dose of the day.
(§2) The study was designed with two main cohorts of mice. One cohort was dosed from 25 days of age until 6 months of age and mice had behavioral testing throughout the study and consisted of 14 mice per group. The other satellite cohort was dosed from 25 days of age until 3 months of age, with no behavioral testing and consisted of 6 mice per group for target engagement and histological assessment. Behavioral tests that were carried out during the experiment were: accelerated rotarod test, gait analysis, and electrophysiology.
(§3) Electrophysiological assessment of compound action muscle potential (CMAP) and repetitive stimulation was carried out at 6 weeks, 3 months and 6 months of age.
Mice were anesthetized using gaseous isoflurane and then maintained under gaseous anesthesia using a nose cone for the duration of the experiment. Body temperature was maintained with a heat pad. The fur from the lower left limb was removed using an electric razor followed by hair removal cream in order to allow skin contact of the ring electrodes. Ring electrodes were covered in electrical paste and were placed around the ankle and thigh area of the shaved limb. […]
Repetitive stimulation was carried out after the CMAP was calculated. […]

TDP-43^Q331K mouse model [2] = experiment: Example 4 electrophysiology: compound muscle action potential (CMAP); type: in vivo; conditions: TDP-43^Q331K mice
Method: as §1, §2, §3
Mice were anesthetized using gaseous isoflurane and then maintained under gaseous anesthesia using a nose cone for the duration of the experiment. Body temperature was maintained with a heat pad. The fur from the lower left limb was removed using an electric razor followed by hair removal cream in order to allow skin contact of the ring electrodes. Ring electrodes were covered in electrical paste and were placed around the ankle and thigh area of the shaved limb. The rings were tightened so that there were no air gaps between the skin and electrodes but not so tight that blood flow was altered. A grounding electrode was placed into the base of the tail and stimulating electrodes were placed higher on the leg as near as possible to the sciatic nerve.
CMAPs were acquired by pulsing an electrical wave of […] duration to the sciatic notch. The position of the electrodes was tested prior to the final pulse in order to make sure they were placed correctly by visualizing the outcome of the pulse. The stimulation current was then increased until no further increase in CMAP was seen.

NQO1 = experiment: Example 5 western blot protein analysis in induced astrocytes; type: cell-based; conditions: human iAstrocytes (CTR, C9orf72, sALS, SOD1 donors), 10 uM, 48 hours treatment
From the text: Induced NPCs were generated from adult human fibroblasts from patients who had been diagnosed with ALS and from age-matched healthy controls, using an approach reported previously (Kim et al PNAS, […]. 108(19), 7838-7843; Meyer et al., PNAS, 2014. 111(2), 829-832). Induced NPCs are differentiated into induced astrocytes (iAstrocytes) by culturing the progenitors in iAstrocyte medium for a total of 7 days with a medium change at day 3.
Cells were scraped from 10 cm dishes and cell pellets were lysed in ice cold IP lysis buffer (150 mM NaCl, 50 mM HEPES, 1 mM EDTA, 1 mM DTT, 0.5% (v/v) Triton X-100, protease inhibitor cocktail, pH 8.0) for 15 minutes and further homogenized using a 25-gauge needle and syringe. Protein samples were separated by SDS-Polyacrylamide Gel Electrophoresis and then semi-dry transferred onto nitrocellulose membranes. Membranes were blotted with Anti-NQO1—1:1000 (5% milk/TBST); rabbit; abcam; ab34173 at 4° C. overnight and anti-Beta-actin—1:5,000 (5% milk/TBST); mouse; abcam; ab6276 clone AC-15 at 4° C. overnight.

CN1CCc2cccc3c2[C@@H]1Cc1ccc(O)c(O)c1-3 [(6aS)-6-methyl-5,6,6a,7-tetrahydro-4H-dibenzo[de,g]quinoline-10,11-diol]
repetitive stimulation, between the dose groups (TDP-43^Q331K mouse model [1]; 3 months): no significant difference
repetitive stimulation response compared to the vehicle dosing group (TDP-43^Q331K mouse model [1]; 6 months of age, 2.5 mg/kg dose group, stimulation numbers 5 and 7): significant increase
repetitive stimulation response (percentage of the first stimulation) compared to vehicle (TDP-43^Q331K mouse model [1]; 6 weeks of age, 2.5 mg/kg twice daily, final stimulation, significant difference): larger decrease in response
relative CMAP at 6 months (based on individual CMAP at 3 months) compared to the vehicle group (TDP-43^Q331K mouse model [2]; 2.5 mg/kg dosing group): significant improvement
relative CMAP at 6 months (based on individual CMAP at 3 months) compared to the vehicle group (TDP-43^Q331K mouse model [2]; 5 mg/kg dosing group): significant improvement
CMAP compared to the vehicle dosing group (TDP-43^Q331K mouse model [2]; 3 months of age, 5 mg/kg dosing group): significant decrease
CMAP compared to vehicle dosed animals (TDP-43^Q331K mouse model [2]; 6 months of age, both dosing groups (2.5 mg/kg twice daily, 5 mg/kg once daily)): significant increase
CMAP, between the different dosing groups (TDP-43^Q331K mouse model [2]; 6 weeks of age): no significant difference
NQO1 protein (western blot quantification) compared to DMSO treatment (NQO1): significant increase
